“Also recorded” adds a separate entry of the source.
Assays:
[1] = Plasma protein bound fraction, rat; type: in vitro ADME
[2] = Prediction of human PK and dose by allometric scaling combined with rat PK/PD
Experimental: Interspecies allometric scaling adjusted for brain weight was used to predict human CLTp, while simple allometric scaling was used to predict Vss. Briefly, the Vss and brain weight adjusted CLTp values from nonclinical species were plotted against body weight on a log-log scale to yield estimates of Vss and CLTp × brain weight in humans. The estimated CLTp × brain weight for human was adjusted for the brain weight of humans to yield a predicted CLTp. […] Noncompartmental analysis was performed using WinNonlin software (version 5.0; Pharsight Corporation, Mountain View, CA). The k a for each species was obtained from the IV and PO (nanosuspensions) of rat, dog, and cynomolgus monkey by deconvolution of plasma concentration-time data using Kinetica (version 5.0; Seattle, WA). The bioavailability was estimated from the nanosuspensions from rat, dog, and cynomolgus monkeys. The average k a and F, along with the Vss and CLTp from allometric scaling, were incorporated into a two-compartment model to predict the human oral plasma concentration-time profiles.

[3] = system: Aβ1-42 (MEF M146V); test: Aβ1-42 ELISA in MEF dKO cultures cotransfected with APP-CTF and human presenilin-1 M146V allele; type: cell-based
Experimental: (§1) H4-APPsw cell cultures were maintained on Dulbecco's modified Eagle's medium (DMEM) supplemented with L-glutamine (2 mM), fetal bovine serum (10%), and G418 (100 μg/mL). […] Aβ1-42 and Aβ1-40 assays, and Notch inhibition assays, were carried out as described previously. Mouse embryonic fibroblasts deficient in PS1 and PS2 (MEF dKO) were passaged twice per week in DMEM/F-12 medium, consisting of a 1 : 1 mixture of DMEM and F-12 nutrient mixture supplemented with 10% fetal bovine serum, penicillin, and streptomycin. For expression of human presenilin-1 in MEF dKO cells, the full length human presenilin-1 cDNA open reading frame was cloned between the BamHI and XhoI sites of the vector pcDNA5/FRT (Invitrogen), placing presenilin-1 expression under the control of the CMV promoter. […]
(§2) IC50 determinations for Aβ1-42 and Aβ1-40 in H4-APPsw cultures in 384-well format were determined using homogeneous time-resolved fluorescence immunoassays as previously described. […] In other experiments using H4-APPsw cultures, Aβ was quantified by ELISA; for Aβ1-42 the combination of monoclonal antibodies was 26D6 and 565-HRP; for Aβ1-40 it was TSD and 26D6-HRP, and for Aβ1-x it was 4G8 and 26D6-HRP. […] For Aβ in transiently transfected PS1/PS2 dKO fibroblasts, Aβ1-42 was quantified using an ELISA kit (WACO), and Aβ1-40 was quantified by ELISA as described above for H4-APPsw cultures. […]

[4] = system: duodenum, liver, and kidney; test: Histopathology in rat 4-day oral dosing experiment; type: in vivo
Experimental: Determination of IC50 values for inhibition of secreted alkaline phosphatase (SEAP) was carried out using an H4 cell line stably expressing SEAP. Cells were treated overnight with compounds in 384-well format, and SEAP accumulation in the culture media was quantified using a chemiluminescence substrate. The pregnane-X-receptor transactivation assay (PXR-TA) was based on the methods of Goodwin et al. as described previously. In the 4-day rat study with BMS-869780, tissues were fixed in 10% neutral buffered formalin, embedded in paraffin, sectioned, stained with hematoxylin and eosin, and examined by light microscopy.
As a preliminary evaluation of safety in vivo, male and female rats were given 10, 30, and 100 mg/kg BMS-869780 orally once daily for 4 days. Endpoints included brain Aβ1-42, as described above (Figures 7(d) and 7(e)), plasma PK on day 1 and day 3 (Table 4), and histopathology for duodenum, liver, and kidney.

[5] = system: Aβ1-40 (MEF M146V); test: Aβ1-40 ELISA in MEF dKO cultures cotransfected with APP-CTF and human presenilin-1 M146V allele; type: cell-based
Experimental: as §1, §2

[6] = Human 700 mg PO suspension (predicted steady state)
[7] = Homo sapiens, presenilin-1 M146V allele

For `COc1cc(Nc2nc3n(n2)CCCC[C@H]3c2ccc(F)cc2)ccc1-n1cnc(Cl)c1` [BMS-869780], the protein bound fraction [1] was 99.5%, the “Brain Aβ ABEC 24 hr Aβ1-42” value [2, 6] was 25% and the “Plasma AUC 0–24 hr” value [2, 6] was 17.8 µM·h. It also gave a Cmax ([2]; plasma, oral, Human 700 mg once daily (predicted steady state)) of 1270 nM, an AUC(0-t) ([2]; plasma, Human 700 mg PO suspension (predicted steady state), read-out: Plasma AUC 0–24 hr) of 17.6 µM·h and an IC50 [3, 7] of 22 nM. The “Aβ1-42 IC50 in M146V allele relative to wild type presenilin” value ([3]; MEF cultures, higher IC50 (less potent) with M146V) was “ca. 3 fold”, the “duodenum and kidney histology” value ([4]; 10, 30 and 100 mg/kg orally once daily for 4 days) was “unchanged at all dose levels” and the liver histology ([4]; at all doses (10, 30, 100 mg/kg once daily for 4 days)) was “macro- and microvesicular vacuolar degeneration”. The “separation of hepatotoxicity from Aβ1-42 lowering exposure benchmarks” value ([4]; lipidosis after four daily doses of 10 mg/kg) was “no separation of hepatotoxicity”, the “Notch-related effect in duodenum” value ([4]; up to 100 mg/kg once daily for 4 days) was “no Notch-related effect on differentiation in the duodenum; also recorded: did not cause any histological change in duodenum” and the IC50 [5, 7] was 34 nM. The “Aβ1-40 IC50 shift in M146V allele relative to wild type presenilin” value ([5]; MEF cultures) was “ca. 3 fold”.
